Measurements published in patent US6686445B1, “Synthetic antineoplastic agents derived from dolastatin 15 and methods of making same” (Arizona Board of Regents, acting for and on behalf of …, priority 1997, dated 2004).
Where a SMILES comes first, the peptide text is derived from it. [ ]: non-standard residue; d: D form. The star is where a group is joined. NH(4-Br-phenethyl) = Brc1ccc(CCN*)cc1; NMe2Val = CC(C)[C@@H](C(=O)*)N(C)C; X5 = O=[N+]([O-])c1ccc(CCN*)cc1; NMeV = CN[C@H](C(=O)O)C(C)C; Hiv = CC(C)[C@H](O)C(=O)O; X2 = c1ccc2ncc(N*)cc2c1; X7 = Clc1cccc(CCN*)c1; NHBn = c1ccc(CN*)cc1; X6 = Fc1ccc(CCN*)cc1; X8 = Clc1ccccc1CCN*

Tests used:
[1] = tested on: NCI 60-cell-line in vitro human tumor panel; settings: read-out: Mean Panel GI50; mean ± S.D. of triplicate tests (* duplicate)
Method: (§1) All compounds synthesized were first evaluated for in vitro antitumor activity against murine P388 lymphocytic leukemia cells and against murine L1210 leukemia cells and human CA46 Burkitt lymphoma cells using techniques described by Hamel & Lin (see: HAMEL, E., and LIN, C. M., […], Interaction of combretastatin, a new plant-derived antimitotic agent, with tubulin, Biochemical Pharmacology, 32, 3864). The compounds were also evaluated in the NCI's human tumor 60-cell-line in intro primary screen as described by Monks et al. (see: MONKS, A., SCUDIERO, et al., 1991, New colorimetric cytotoxicity assay for anticancer drug screening, Journal of the National Cancer Institute, 83, 757). Data analyses were performed using methods described by Boyd and Paull (see: BOYD, M. R., et al., 1995, Some practical considerations and applications of the National Cancer Institute in vitro anticancer drug discovery screen, Drug Development Research, 34, 91). A tubulin polymerization inhibition assay was performed according to a modified version of the procedure used previously and described by Muzaffar et al. (see: MUZAFFAR, A., et al., 1990, Antitubulin effects of derivatives of 3-demethylthiocolchicine, methylthio esters of natural colchicinoids, and thioketones derived from thiocolchicine, Comparison with colchicine, Journal of Medicinal Chemistry, 33, 567) to evaluate the effects of dolastatin 15 on cellular microtubule assembly. The new assay for these compounds employed a drug-tubulin preincubation (15 min.) with 10 μM tubulin in 0.8 M glutamate at 30° C., followed by addition of GTP and incubation (20 min.) at 30° C., with tubulin polymerization monitored turbidimetrically in GILFORD recording spectrophotometers.

[2] = tested on: human CA46 Burkitt lymphoma cells; settings: read-out: Human CA46 Burkitt Lymphoma IC50; cells counted after 20 hours
Method: as §1

[3] = tested on: murine L1210 leukemia cells; settings: read-out: Mouse Leukemia L1210 IC50; cells counted after 24 hours of growth
Method: as §1

[4] = tested on: murine P388 lymphocytic leukemia cells; assay: growth inhibition of murine P388 lymphocytic leukemia cells; type: cell-based; settings: dosage inhibiting tumor cell growth by 50%
Method: as §1

[5] = tested on: Erwinia carotovora; assay: antimicrobial disk susceptibility test; type: cell-based; settings: twofold dilutions
Method: Antimicrobial disk susceptibility tests were performed according to the method established by the National Committee for Clinical Laboratory Standards (NCCLS, 1997). MUELLER-HINTON agar was used for susceptibility testing of Staphylococcus aureus, Enterococcus faecalis, Micrococcus luteus, Escherichia coli, Enterobacter cloacae, Bacillus subtilis, Pseudomonas aeruginosa, and Erwinia carotovora, Gonococcal Typing agar for Neisseria gonorrhoeae, and YM agar for Candida albicans and Cryptococcus neoformans. Immediately prior to susceptibility assays, compounds were reconstituted in sterile DMSO and twofold dilutions applied to sterile 6-mm disks. Zones of inhibition were read at 16 hours for bacterial cultures (except for M. luteus) and 42 hours for fungal cultures and M. luteus. MIC determinations were performed in duplicate.

[6] = tested on: human CA46 Burkitt lymphoma cells; assay: mitotic arrest in drug-treated CA46 Burkitt cells; type: cell-based; settings: 80 nM drug for 20 hours, control cells 3% mitotic
Method: To further verify the assumption that this entire series of compounds is acting intracellularly by interfering with tubulin function, the drug-treated Burkitt cells for mitotic arrest were analyzed.

Row | SMILES | GI50 [1] | IC50 [2] | IC50 [3] | Mouse Leukemia P388 ED50 [4] | Minimum inhibitory concentration, Erwinia carotovora [5] | % Mitotic Cells [6]
1 | CC(C)[C@H](NC(=O)[C@H](C(C)C)N(C)C)C(=O)N(C)[C@H](C(=O)N1CCC[C@H]1C(=O)N1CCC[C@H]1C(=O)O[C@H](C(=O)NCc1ccccc1)C(C)C)C(C)C [Compound 12b] (NMe2Val-V[NMeV]PP[Hiv]-NHBn) | 0.79 ± 0.1 nM | 0.3 nM | 1 nM | 0.42 ng/mL | 50-100 μg/disk | 46%
2 | CC(C)[C@H](NC(=O)[C@H](C(C)C)N(C)C)C(=O)N(C)[C@H](C(=O)N1CCC[C@H]1C(=O)N1CCC[C@H]1C(=O)O[C@H](C(=O)NCCc1cccc(Cl)c1)C(C)C)C(C)C [Compound 12f] (NMe2Val-V[NMeV]PP[Hiv]-X7) | 0.83 ± 0.41 nM | 2 nM | 4 nM | 0.37 ng/mL | – | 38%
3 | CC(C)[C@H](NC(=O)[C@H](C(C)C)N(C)C)C(=O)N(C)[C@H](C(=O)N1CCC[C@H]1C(=O)N1CCC[C@H]1C(=O)O[C@H](C(=O)Nc1cnc2ccccc2c1)C(C)C)C(C)C [Compound 12r] (NMe2Val-V[NMeV]PP[Hiv]-X2) | 2.31 nM | 2 nM | 2 nM | 0.29 ng/mL | 50-100 μg/disk | 42%
4 | COC(=O)[C@@H]1CCCN1C(=O)[C@@H](OC(=O)[C@@H]1CCCN1C(=O)[C@@H]1CCCN1C(=O)[C@H](C(C)C)N(C)C(=O)[C@@H](NC(=O)[C@H](C(C)C)N(C)C)C(C)C)C(C)C [Compound 12o] (NMe2Val-V[NMeV]PP[Hiv]P-OMe) | 4.48 ± 0.44 nM | 2 nM | 4 nM | 3.1 ng/mL | – | 42%
5 | CC(C)[C@H](NC(=O)[C@H](C(C)C)N(C)C)C(=O)N(C)[C@H](C(=O)N1CCC[C@H]1C(=O)N1CCC[C@H]1C(=O)O[C@H](C(=O)NCCc1ccc(Br)cc1)C(C)C)C(C)C [Compound 12h] (NMe2Val-V[NMeV]PP[Hiv]-{NH(4-Br-phenethyl)}) | 0.81 ± 0.15 nM | 2 nM | 2 nM | 0.36 ng/mL | – | 48%
6 | CC(C)[C@H](NC(=O)[C@H](C(C)C)N(C)C)C(=O)N(C)[C@H](C(=O)N1CCC[C@H]1C(=O)N1CCC[C@H]1C(=O)O[C@H](C(=O)NCCc1ccccc1Cl)C(C)C)C(C)C [Compound 12g] (NMe2Val-V[NMeV]PP[Hiv]-X8) | 0.81 ± 0.31 nM | 2 nM | 4 nM | 0.33 ng/mL | – | 26%
7 | CC(C)[C@H](NC(=O)[C@H](C(C)C)N(C)C)C(=O)N(C)[C@H](C(=O)N1CCC[C@H]1C(=O)N1CCC[C@H]1C(=O)O[C@H](C(=O)NCCc1ccc([N+](=O)[O-])cc1)C(C)C)C(C)C [Compound 12i] (NMe2Val-V[NMeV]PP[Hiv]-X5) | 0.94 ± 0.41 nM | 3 nM | 4 nM | 0.60 ng/mL | – | 36%
8 | COC(=O)[C@H](CCSC)NC(=O)[C@@H](OC(=O)[C@@H]1CCCN1C(=O)[C@@H]1CCCN1C(=O)[C@H](C(C)C)N(C)C(=O)[C@@H](NC(=O)[C@H](C(C)C)N(C)C)C(C)C)C(C)C [Compound 12n] (NMe2Val-V[NMeV]PP[Hiv]M-OMe) | 2.93 ± 0.93 nM | 3 nM | 3 nM | 0.55 ng/mL | – | 44%
9 | CC(C)[C@H](NC(=O)[C@H](C(C)C)N(C)C)C(=O)N(C)[C@H](C(=O)N1CCC[C@H]1C(=O)N1CCC[C@H]1C(=O)O[C@H](C(=O)NCCc1ccc(F)cc1)C(C)C)C(C)C [Compound 12d] (NMe2Val-V[NMeV]PP[Hiv]-X6) | 0.89 ± 0.29 nM | 0.8 nM | 4 nM | 0.55 ng/mL | – | 46%
